Data set [1] can be described thus: Liver microsome stability, human. Type of data set: in vitro ADME. The following applies: liver microsomes, pH 7.4, Table 2A, read-out: Microsome Stability Human t1/2. The essentials:
(§1)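 Remaining compound measured by LC/MS after acetonitrile/internal-standard quench at 0–60 min time points (0, 5, 10, 20, 30, 60). Incubations used mouse or human liver microsomes in pH 7.4 potassium phosphate/EDTA buffer with NADPH; a 60-min sample without NADPH served as control.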

Data set [2] in a line: Chemical stability in simulated gastric fluid (SGF) without pepsin. Type of data set: physicochemical. To be noted: 50 μM prodrug. Put shortly: (§2)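 Incubations used 50 μM compound at 37 °C in phosphate buffered saline, fasted simulated intestinal fluid without pancreatin, or fasted simulated gastric fluid without pepsin.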
Data set [3] can be described thus: Chemical stability in phosphate buffered saline (PBS). Type of data set: physicochemical. The following applies: 50 μM prodrug. Put shortly: as §2
Data set [4] can be described thus: Plasma stability, mouse plasma. Type of data set: in vitro ADME. To be noted: Table 2A, 37 °C, read-out: Plasma Stability Mouse t1/2. Put shortly:
(§3)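 Half-life (min) from LC-MS/MS of acetonitrile-quenched samples taken at t=0, 2, 5, 15, 30 min. Compound dosed at 1 µM final into plasma pre-warmed to 37 °C, pH set to 7.4 where required; incubations at 37 °C.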

A short description of data set [5]: Plasma stability, human plasma. The following applies: Table 2A, 37 °C, read-out: Plasma Stability Human t1/2. Type of data set: in vitro ADME. Put shortly: as §3
A short description of data set [6]: Liver microsome stability, mouse. The following applies: liver microsomes, pH 7.4, Table 2A, read-out: Microsome Stability Mouse t1/2. Type of data set: in vitro ADME. The essentials:
as §1

Turning to `Cl.[H]/N=C(/NC(=O)CCCCCCC/C=C\CCCCCCCC)N(CC(=O)OCCCCCCC)C([2H])([2H])[2H]` [Compound 2, (Z)-heptyl 2-(1-trideuteriomethyl-3-oleoylguanidino)acetate Hydrochloride], the half-life at 10 μM is 6 min in data set [1] and 7 min in data set [6]. Besides, the “Chemical Stability SGF, no enzyme % T0 at 2 hours at 37 °C.” value (shortened to “Chemical Stability SGF, no enzyme % T0”) in data set [2] (Table 2A) is 81%. Moreover, the “Chemical Stability PBS % T0 at 2 hours at 37 °C.” value (from here on “Chemical Stability PBS % T0”) in data set [3] (Table 2A) was 61%. Also, the half-life in data set [4] and in data set [5] was < 5 min in each case.

`Cl.[2H]C([2H])([2H])N(CC(=O)OCC)C(=N)NC(=O)CCCCCCCCCC` [Compound 8]: the half-life at 10 μM in data set [1] and in data set [6] was < 5 min throughout. Further, the “Chemical Stability SGF, no enzyme % T0” value in data set [2] (Table 2A) is 117%; in data set [2] (Table 2B), 95%. The “Chemical Stability PBS % T0” value in data set [3] (Table 2A) and in data set [3] (Table 2B) was 0% in each case. The half-life in data set [4] and in data set [5] was < 5 min in each case.

As to `Cl.[2H]C([2H])([2H])N(CC(=O)OCCCCCCC)C(=N)NC(=O)CCCCCCCCCCCC` [Compound 11], the half-life at 10 μM in data set [1] and in data set [6] was < 5 min each time. Further, the “Chemical Stability SGF, no enzyme % T0” value in data set [2] (Table 2A) is on record as 76%. Moreover, the “Chemical Stability PBS % T0” value in data set [3] (Table 2A) came to 42%. Further, the half-life in data set [4] and in data set [5] was < 5 min in each case.

(Values after US11332438B2, “Creatine prodrugs, compositions and methods of use thereof” (Ultragenyx Pharmaceutical Inc., priority 2017, dated 2022).)
